This note sets out measurements from US20220257552A1, “METHODS OF PRESCREENING AND TREATING BREAST CANCERS WITH SELECTIVE ANDROGEN RECEPTOR MODULATORS” (priority 2021, published 2022).

Each structure is given as a SMILES string.

One assay concerns HCI-13 PDX. As to the kind of experiment: HCI-13 (HCI-013) patient-derived xenograft in NSG mice. In kind it is in vivo. To be noted: 10 mpk p.o. Here is the method: HCI-013 tumor pieces (1 mm^3) were implanted surgically (one per mouse) under the skin on the flanks of NSG mice. Tumors were allowed to grow and reach approximately 100 mm^3 volume (1*W*W*0.526). […] Tumor volume was measured weekly and represented as % change in tumor volume. Mice were sacrificed, tumors weighed, and stored for further analysis.
(§1) All animal protocols were approved by The University of Tennessee Health Science Center (UTHSC) Institutional Animal Care and Use Research Committee. Xenograft experiments were performed as previously published (Narayanan et al. (2014) PLoS One 9, e103202). Briefly, 3 million MCF-7 cells were suspended in 0.05 ml MEM+10% FBS and 0.05 ml Matrigel/nude mouse and were injected subcutaneously. Once the tumor size reached 100-200 mm^3, the animals were randomized and treated orally with the indicated drugs formulated in DMSO:PEG-300 (15:85). HCI-7, HCI-9, and HCI-13 PDXs were gifts kindly donated by Dr. Alana Welm (Huntsman Cancer Institute, Salt Lake City, Utah). HCI PDX tumor fragments (1 mm^3) were surgically implanted under the mammary fat pad in female NOD SCID Gamma (NSG) mice. Tumor volume was measured twice weekly for MCF-7 xenograft and once or twice weekly for HCI PDXs. At the end of the study, animals were sacrificed and tumors were excised, weighed, and stored for various analyses.

A further assay relates to MCF-7-GFP cells. In kind it is cell-based, human. From the text:
Tumor microenvironment contains tumor epithelial cells, stromal cells, cancer-associated fibroblasts (CAFs), and endothelial cells. The collective function of these cells promotes the aggressive growth of tumors due to secretion of paracrine factors. The CAFs are important for the sustained growth of cancers, and they differ from normal fibroblasts in their capacity to secrete factors that promote proliferation of cancer cells. […] Medium was collected over a period of 10 days and pooled. CAFs were stained with SRB to evaluate the effect of AR ligands on proliferation.
Conditioned medium was replaced on days 4 and 7 and the cells were stained with SRB to measure viability.

Assay [1] has as its system HCI-13 tumors. Description: Affymetrix microarray of HCI-13 PDX tumors. The arrangement: species or system mice. To be noted: mouse, in vivo. On the procedure: RNA from tumors was extracted and verified qualitatively and quantitatively. Total RNA (200 ng/sample; n=4/group) from each sample was amplified and labeled using the WT Plus Kit from Affymetrix and processed according to Affymetrix protocol. The arrays (Human ST2.0, Affymetrix, Santa Clara, Calif.) were washed and stained on Affymetrix Fluidics station 450 and scanned on an Affymetrix GCS 3000 scanner.
Data from microarrays were normalized using Affymetrix Expression Console. Mean, Standard Deviation, and Variance were calculated across the groups. Fold Change from vehicle-treated samples was calculated, and a fold change of 1.5 was used as cutoff Student's t-test was used to determine the significance and a cutoff of p value<0.05 was used for significance discovery. False discovery rate was calculated using Benjamini & Hochberg method, and a cutoff for FDR<0.05 was used to create a significant differential expression list. The gene candidate list was loaded to Ingenuity Pathway Analysis and gene set enrichment analysis (GSEA) performed for further discovery. Microarray experiments were performed at the UTHSC Molecular Resources Center (MRC), and data analysis was performed by the UTHSC Molecular Bioinformatics (mBio) core facility.

In assay [2] the test system is HCI-13 tumors. As to the kind of experiment: Phospho-proteomics of HCI-13 PDX tumors. Also noted: species or system mice. The following applies: mouse, in vivo. Here is the method:
Whole tissue lysates were directly prepared from the tissue sections using a 1:1 mixture of T-PER (Tissue Protein Extraction Reagent; Pierce, Rockford, Ill.) and 2× Tris-Glycine SDS Sample Buffer (Invitrogen, Carlsbad, Calif.) supplemented with 5% 2-mercaptoethanol. Samples were boiled for 8 minutes and stored at −80° C. until arrayed.
Samples and standard curves for internal quality assurance were printed onto nitrocellulose-coated slides (Grace Bio-labs, Bend, Oreg.) using an Aushon 2470 arrayer (Aushon BioSystems, Billerica, Mass.). Selected arrays were used to estimate the amount of protein in each sample using a Sypro Ruby Protein Blot Stain (Molecular Probes, Eugene, Oreg.) protocol following manufacturer's instructions (Pin et al. (2014) Curr Protoc Prtein Sci 75, Unit 27 27). Remaining arrays were tested with a single primary antibody using an automated system (Dako Cytomation, Carpinteria, Calif.) as previously described (Baldelli et al. (2015) Oncotarget 6, 32368-32379). Arrays were first incubated with Reblot Antibody stripping solution (Chemicon, Temecula, Calif.), followed by two washes in PBS, and I-block solution (Tropix, Bedford, Mass.) for 4 hours. Arrays were probed with a total of 174 antibodies targeting a wide range of protein kinases and their activation via phosphorylation. Antibodies specificity was tested using standard immunoblotting on a panel of cell lysates. […]
The commercially available Signal Amplification System (CSA; Dako Cytomation) and a streptavidin-conjugated IRDye 680 secondary antibody (LI-COR Biosciences, Lincoln, Nebr.) were used as signal detection methods. Images were acquired on the laser-based PowerScanner (TECAN, Mönnedorf, Switzerland), and data were analyzed using the MicroVigene software Version 5.1 (Vigene Tech, Carlisle, Mass.) as previously described (Baldelli et al. (2015) Oncotarget 6, 32368-32379). […]

The subject of another assay is MCF-7-AR cells. As to the kind of experiment: MCF-7-AR xenograft in ovariectomized, estradiol-supplemented mice. In kind it is in vivo. Here is the method:
Once tumors reached 100-200 mm^3, the animals were randomized and treated with vehicle or 30 mg/kg per day of Formula VIII. Tumor volumes and body weights were measured thrice weekly. At the end of 5 weeks of treatment, the animals were sacrificed, tumors weighed and stored for RNA and protein isolation and histology. * significance at P<0.05.
as §1

In the case of `C[C@](O)(COc1ccc(C#N)cc1)C(=O)Nc1ccc(C#N)c(C(F)(F)F)c1` [Formula IX, (S)—N-(4-Cyano-3-(trifluoromethyl)phenyl)-3-(4-cyanophenoxy)-2-hydroxy-2-methylpropanamide], the “tumor weight at sacrifice” value with HCI-13 PDX is “almost complete inhibition of tumor”. For the same compound, the “proliferation of breast cancer CAFs” value in the assay on MCF-7-GFP cells is “neither AR agonist, DHT and Formula IX, nor AR antagonist enzalutamide, affected the proliferation”. In the assay on MCF-7-GFP cells (10 days), the “proliferation of MCF-7-GFP cells fed conditioned medium from treated CAFs” value is reported as “inhibited the proliferation”. Moreover, in the assay on HCI-13 tumors [1], the “members of histone group inhibited” value is “About 17”. In the assay on HCI-13 tumors [2], the “expression of proliferation marker Ki67” value is recorded as “inhibited the expression”; the “phosphorylation of oncogenic proteins (pERK, PKC z, RSK3, Ezrin, BCL2, ELF4G, ER)” value is “inhibited the phosphorylation”; the “phosphorylation of tumor suppressor proteins (p53, p27, ACC, AR)” value is “increased the phosphorylation”.
For `C[C@](O)(COc1ccc(C#N)cc1)C(=O)Nc1ccc(C#N)c(Cl)c1` [Formula VIII, (S)—N-(3-chloro-4-cyanophenyl)-3-(4-cyanophenoxy)-2-hydroxy-2-methylpropanamide], the “growth inhibition of xenografts” value in the assay with MCF-7-AR cells (30 mg/kg per day, 5 weeks) is given as “greater than 50%”. Further, in the assay on MCF-7-AR cells (estrogen supplemented animals), the uterus weight result is “inhibited”.
